Measured values from patent US12319655B2, “RAF kinase inhibitors and methods of use thereof” (Deciphera Pharmaceuticals, LLC, priority 2021, dated 2025).
pIC50: −log10 of the molar value.

Key:
Miapaca-2 cells = assay: MiaPaca-2 Combination Cell proliferation Assay (1) with cobimetinib; format: cell-based; details: MiaPaca-2 cell proliferation, read-out: MiaPaca-2 Combo (1) IC50
WM3629 cells = assay: WM3629 Cell Proliferation Assay (1); format: cell-based

Compound: CC(=O)Nc1cc(-c2cc(-c3cc(NC(=O)c4ccnc(C(F)(F)F)c4)ccc3C)cc(OCCO)n2)ccn1 [Example 1, N-(3-(2′-acetamido-6-(2-hydroxyethoxy)-[2,4′-bipyridin]-4-yl)-4-methylphenyl)-2-(trifluoromethyl)isonicotinamide]
- pIC50 (Miapaca-2 cells): ≥ 7.00

Compound: CC(=O)Nc1cc(-c2cc(-c3cc(NC(=O)c4ccnc(C(F)(F)F)c4)c(F)cc3C)ccn2)ccn1 [Example 2]
- pIC50 (Miapaca-2 cells): ≥ 7.00

Compound: Cc1ccc(NC(=O)c2ccnc(C(F)(F)F)c2)cc1-c1ccnc(-c2ccnc(NC(=O)CC#N)c2)c1 [Example 39, N-(3-(2′-(2-cyanoacetamido)-[2,4′-bipyridin]-4-yl)-4-methylphenyl)-2-(trifluoromethyl)isonicotinamide]
- pIC50 (Miapaca-2 cells): 6.30 to 7.00

Compound: CC(=O)Nc1cc(-c2cc(-c3cc(NC(=O)c4ccnc(C(F)(F)F)c4)ccc3C)nc(N(C)C)n2)ccn1 [Example 41, N-(3-(6-(2-acetamidopyridin-4-yl)-2-(dimethylamino)pyrimidin-4-yl)-4-methylphenyl)-2-(trifluoromethyl)isonicotinamide]
- pIC50 (Miapaca-2 cells): ≥ 7.00

Compound: Cc1ccc(NC(=O)c2ccnc(C(C)(C)C#N)c2)cc1-c1cncc(-c2ccnc3c2CC(=O)N3)n1 [Example 43]
- pIC50 (Miapaca-2 cells): 6.30 to 7.00

Compound: CNC(=O)c1cc(-c2cncc(-c3cc(NC(=O)c4ccnc(C(F)(F)F)c4)ccc3C)n2)ccn1 [Example 47]
- pIC50 (Miapaca-2 cells): 6.30 to 7.00

Compound: CNC(=O)c1cc(-c2cc(-c3cc(NC(=O)c4ccnc(C(F)F)c4)ccc3C)ccn2)ccn1 [Example 48]
- pIC50 (Miapaca-2 cells): ≥ 7.00

Compound: CNC(=O)c1cc(-c2cc(-c3cc(NC(=O)c4ccnc(C(C)(C)C#N)c4)ccc3C)ccn2)ccn1 [Example 50]
- pIC50 (Miapaca-2 cells): ≥ 7.00

Compound: CNC(=O)c1cc(-c2cc(-c3cc(NC(=O)c4cccc(C(F)(F)F)c4)cnc3C)ccn2)ccn1 [Example 52]
- pIC50 (WM3629 cells): ≥ 7.00

Compound: Cc1ccc(NC(=O)c2ccnc(C(F)(F)F)c2)cc1-c1ccnc(-c2ccnc(NC(=O)C3CC3)c2)c1 [Example 54]
- pIC50 (Miapaca-2 cells): ≥ 7.00

Compound: COCC(=O)Nc1cc(-c2cc(-c3cc(NC(=O)c4ccnc(C(C)(C)C#N)c4)ccc3C)ccn2)ccn1 [Example 61]
- pIC50 (Miapaca-2 cells): ≥ 7.00

Compound: Cc1ccc(NC(=O)c2ccnc(C(F)(F)F)c2)cc1-c1cccc(-c2ccnc(NC(=O)CC#N)c2)c1 [Example 62]
- pIC50 (Miapaca-2 cells): 6.30 to 7.00

Compound: Cc1ccc(NC(=O)c2ccnc(C(C)(C)C#N)c2)cc1-c1ccnc(-c2ccnc(NC(=O)CC#N)c2)c1 [Example 63]
- pIC50 (Miapaca-2 cells): 6.30 to 7.00

Compound: CCOc1ncc(-c2cc(NC(=O)c3ccnc(C(F)(F)F)c3)ccc2C)cc1-c1ccnc(NC(C)=O)c1 [Example 68]
- pIC50 (Miapaca-2 cells): ≥ 7.00

Compound: CCOc1ncc(-c2cc(NC(=O)c3ccnc(C(F)(F)F)c3)ccc2C)cc1-c1ccnc(C(=O)NC)c1 [Example 69]
- pIC50 (WM3629 cells): ≥ 7.00

Compound: CNC(=O)c1cc(-c2cc(-c3cc(C(=O)Nc4ccnc(C(C)(C)C#N)c4)ccc3C)ccn2)ccn1 [Example 74]
- pIC50 (Miapaca-2 cells): ≥ 7.00

Compound: Cc1ccc(NC(=O)c2ccnc(C(C)(C)C#N)c2)cc1-c1cccc(-c2cc(NC(=O)C3CC3)ncn2)c1 [Example 77]
- pIC50 (WM3629 cells): ≥ 7.00
- pIC50 (Miapaca-2 cells): ≥ 7.00

Compound: CNC(=O)c1cc(-c2nccc(-c3cc(NC(=O)c4ccnc(C(C)(C)C#N)c4)ccc3C)n2)ccn1 [Example 78]
- pIC50 (Miapaca-2 cells): ≥ 7.00

Compound: CC(=O)Nc1cc(-c2cccc(-c3cc(NC(=O)c4ccnc(C(C)(C)C#N)c4)ccc3C)c2)ncn1 [Example 79]
- pIC50 (Miapaca-2 cells): ≥ 7.00

Compound: Cc1ccc(NC(=O)c2ccnc(C(F)(F)F)c2)cc1-c1cccc(-c2cc(NC(=O)C3CC3)ncn2)c1 [Example 80]
- pIC50 (WM3629 cells): ≥ 7.00
- pIC50 (Miapaca-2 cells): ≥ 7.00

Compound: CNC(=O)c1cc(-c2cncc(-c3cc(NC(=O)c4ccnc(C(C)(C)C#N)c4)ccc3C)n2)ccn1 [Example 86]
- pIC50 (Miapaca-2 cells): ≥ 7.00

Compound: COCC(=O)Nc1cc(-c2nccc(-c3cc(NC(=O)c4ccnc(C(C)(C)C#N)c4)ccc3C)n2)ccn1 [Example 88]
- pIC50 (Miapaca-2 cells): ≥ 7.00

Compound: CC(=O)Nc1cc(-c2cc(-c3cc(NC(=O)c4ccnc(C(C)(C)C#N)c4)ccc3C)nc(C)n2)ccn1 [Example 89]
- pIC50 (Miapaca-2 cells): ≥ 7.00

Compound: Cc1ccc(NC(=O)c2ccnc(C(C)(C)F)c2)cc1-c1cncc(-c2cc(NC(=O)C3CC3)ncn2)c1 [Example 394]
- pIC50 (WM3629 cells): ≥ 7.00
- pIC50 (Miapaca-2 cells): 5.00 to 6.00

Compound: Cc1ccc(NC(=O)c2ccnc(C3(C#N)CC3)c2)cc1-c1cncc(-c2cc(NC(=O)C3CC3)ncn2)c1 [Example 395]
- pIC50 (WM3629 cells): ≥ 7.00

Compound: Cc1ccc(NC(=O)c2ccnc(C(F)(F)F)c2)cc1-c1cncc(-c2cc(NC(=O)C3CC3)ncn2)c1 [Example 397]
- pIC50 (WM3629 cells): ≥ 7.00
